In one data set the test system is R4. Briefly: Indicator displacement assay with host:LCG reporter pair, guest R4. The note with it: association constant, competitive dye displacement with LCG, 5 mM phosphate buffer pH 7.3, mean ± SD of triplicate. It counts as binding. The source says:
(§1) The binding affinity of the anionic calixarene activators toward cationic peptides was investigated using a small library of highly hydrophilic oligoarginines, from 3 to 8 residues. These peptides are not able to spontaneously transverse zwitterionic artificial membranes in vesicle assays, which allows the accurate evaluation of the calixarenes 1 and 2 as counterion activators without interferences from the transport of the peptide alone.[43]−[45] First, the formation of host–guest complexes between 1/2 and the selected peptides was verified by indicator displacement assays using lucigenin (LCG) as the fluorescent indicator.[46] As previously reported for other sulfonatocalixarene derivatives,[46] the formation of host–guest binding pairs between calixarenes 1/2 in the E- and Z-forms and LCG results in significant static fluorescence quenching (see Figure 2A and Figures S26 and S27). Quantitative analysis of the fluorescence titration data using a 1:1 host:guest binding model allows the determination of the respective binding constants (K) reported in Table 1. As can be observed, both 1/2 display high affinity for the LCG dye, on the 10^7 M^–1 range, which seems to be independent of the nature and conformation of the azobenzene arm. […] The host:LCG binding pairs were then employed in the above-mentioned indicator displacement assays to investigate the binding affinity of oligoarginines toward 1 and 2 (see Figure 2B and Figures S29–S33).
The binding affinities of the counterion activators and peptide complexes were analyzed by indicator displacement assays. The fluorescent dye chosen for these experiments was lucigenin (LCG) due to its complex with the receptor SC4 being well characterized and due to the high variation of emission between its bound and free form. Firstly, the affinity for LCG was calculated for each of the activators, by titrations followed by fluorescence spectroscopy leading to almost full quenching of the emission. For the competitive assays, a concentration of LCG and activator was chosen in order to have approximately 90% of complexed dye and that mixture was then titrated with each of the peptides, leading to the regaining of emission when LCG was release from the complex.
Figure S26 - Fluorescence titration of the lucigenin dye with increasing concentrations of A) E-1 and B) Z–1 in water (5 mM phosphate buffer pH 7.3). LCG concentration was fixed 0.2 µM in all experiments, except for the first E-1 titrations were [LCG]
(1 picture or pasted object on this page, not shown here)
Figure S29 - Indicator displacement titration of the several oligoarginines A) R3 B) R4 C) R6 and D) R8, using SC4:LCG as the reporter pair (5 mM phosphate buffer pH 7.3). LCG and SC4 concentrations were fixed at A) 0.22 and 0.50 µM, for all three replicates, B) 0.22 and 4.7 µM for the first titration and 0.22 and 4.3 µM for the remaining two replicates, C) 0.22 and 0.45 µM and 1.1 and 0.85 µM and D) 0.28 and 0.43 µM and 1.1 and 0.85 µM, respectively, from left to right.
Figure S30 - Indicator displacement titration of the several oligoarginines A) R3 B) R4 C) R6 and D) R8, using E-1:LCG as the reporter pair (5 mM phosphate buffer pH 7.3) LCG and E-1 concentrations were fixed at A) 0.11 and 0.25 µM, for all three replicates, B) 0.22 and 0.5 µM, for the first two titrations and 0.22 and 0.23 µM for the remaining replicate, C) 4.0 and 3.8 µM and 0.22 and 0.5 µM, D) 4 and 3 µM and 0.22 and 0.5 µM, respectively, from left to right. […]

In a further data set the test system is R8. Briefly: Indicator displacement assay with host:LCG reporter pair, guest R8. The settings on record: association constant, competitive dye displacement with LCG, 5 mM phosphate buffer pH 7.3; only the lower limit can be estimated. It counts as binding.
Text: as §1
(§2) The binding affinities of the counterion activators and peptide complexes were analyzed by indicator displacement assays. […] Firstly, the affinity for LCG was calculated for each of the activators, by titrations followed by fluorescence spectroscopy leading to almost full quenching of the emission. […]
(§3) Figure S26 - Fluorescence titration of the lucigenin dye with increasing concentrations of A) E-1 and B) Z–1 in water (5 mM phosphate buffer pH 7.3). […]

Data set [1] in a line: Fluorescence titration of lucigenin dye with calixarene host (1:1 binding model). The settings on record: association constant, 1:1 host:guest model, 5 mM phosphate buffer pH 7.3, mean ± SD of triplicate.
Text: as §1
Figure 2 (A) Fluorescence titration of the lucigenin dye (LCG, 1.5 μM) with increasing concentrations of E-2 in water (5 mM phosphate buffer, pH 7.3). (B) Indicator displacement titration of hexaarginine (R6) using E-2:LCG as the reporter pair (5 mM phosphate buffer, pH 7.3). LCG and E-2 concentrations were fixed at 4 and 4.3 μM, respectively. […]
as §2, §3
Figure S27 - Fluorescence titrations of the lucigenin dye (LCG, 0.2 µM, except for the first E-2 titration were [LCG] = 1.5 µM ) with increasing concentrations of (A) E-2 and (B) Z-2 in water (5 mM phosphate buffer pH 7.3). […]
Figure S28 - Fluorescence titrations of the lucigenin dye (LCG, 0.2 µM) with increasing concentrations of SC4 in water (5 mM phosphate buffer pH 7.3). […]

The next data set deals with hexaarginine (R6). Briefly: Indicator displacement assay with host:LCG reporter pair, guest R6. It is filed as binding. The settings on record: association constant, competitive dye displacement with LCG, 5 mM phosphate buffer pH 7.3; only the lower limit can be estimated.
Text: as §1
Figure 2 (A) Fluorescence titration of the lucigenin dye (LCG, 1.5 μM) with increasing concentrations of E-2 in water (5 mM phosphate buffer, pH 7.3). […]
as §2, §3

The nature of data set [2]: Photochemical characterisation (UV–vis absorption, 1H NMR) and thermal Z→E isomerization. It counts as physicochemical. The note with it: for Fraction of E isomer in the photostationary state (PSS): irradiation of the Z-forms at 500 nm; for Thermal stability of the Z isomer: room temperature, time frame of the experiments. The source says:
The photochromic properties of 1 and 2 were investigated in diluted aqueous solution by UV–vis absorption spectroscopy and in CD3OD by ^1H NMR.
On the other hand, irradiation of the Z-forms at λirr = 500 nm originates a photostationary state (PSS) composed of 70 and 80% of E-1 (Φ1Z → E = 0.6) and E-2 (Φ2Z → E = 0.5), respectively (Figure 1 and Figure S23). As generally observed for other azobenzene photoswitches,[42] the E isomers can be quantitatively recovered in the dark through the thermal Z → E isomerization, with 1 and 2 presenting activation energies of 215 and 93 kJ/mol, respectively (Figures S24 and S25).

Results on four compounds are retold here after paper PMC10288505, “Photoswitchable Calixarene Activators for Controlled Peptide Transport across Lipid Membranes” (Journal of the American Chemical Society, 2023).

A value given as a limit tells only on which side of the number the result lay.

For the compound `O=S(=O)([O-])c1cc2c(O)c(c1)Cc1cc(S(=O)(=O)[O-])cc(c1O)Cc1cc(S(=O)(=O)[O-])cc(c1OCCCCCCOc1ccc(/N=N/c3ccccc3)cc1)Cc1cc(S(=O)(=O)[O-])cc(c1O)C2.[Li+].[Li+].[Li+].[Li+]` [E-1], in the data set on R4, the “Apparent affinity constant K for R4” value was “(3.9 ± 0.3) × 10^7 M^–1”. Also, the “Apparent affinity constant K for R8” value in the data set on R8 is reported as >5 × 10^8 ^a M^–1. In addition, the “Apparent affinity constant K for LCG” value in data set [1] is reported as “(2.5 ± 0.7) × 10^7 M^–1”. The “Apparent affinity constant K for R6” value in the data set with hexaarginine (R6) is reported as >5 × 10^8 ^a M^–1. In addition, the “Fraction of E isomer in the photostationary state (PSS)” value in data set [2] is recorded as 70%.

For `CCCCc1ccc(/N=N/c2ccc(OCCCOc3c4cc(S(=O)(=O)[O-])cc3Cc3cc(S(=O)(=O)[O-])cc(c3O)Cc3cc(S(=O)(=O)[O-])cc(c3O)Cc3cc(S(=O)(=O)[O-])cc(c3O)C4)cc2)cc1.[Li+].[Li+].[Li+].[Li+]` [E-2], the “Apparent affinity constant K for R4” value in the data set on R4 is “(1.2 ± 0.6) × 10^8 M^–1”. For the same compound, the “Apparent affinity constant K for R8” value in the data set with R8 is on record as >5 × 10^8 ^a M^–1. In addition, the “Apparent affinity constant K for LCG” value in data set [1] is given as “(2.6 ± 0.7) × 10^7 M^–1”. Besides, the “Apparent affinity constant K for R6” value with hexaarginine (R6) was >5 × 10^8 ^a M^–1. The “Fraction of E isomer in the photostationary state (PSS)” value in data set [2] worked out at 80%.

As for `O=S(=O)([O-])c1cc2c(O)c(c1)Cc1cc(S(=O)(=O)[O-])cc(c1O)Cc1cc(S(=O)(=O)[O-])cc(c1OCCCCCCOc1ccc(/N=N\c3ccccc3)cc1)Cc1cc(S(=O)(=O)[O-])cc(c1O)C2.[Li+].[Li+].[Li+].[Li+]` [Z-1], in the data set on R4, the “Apparent affinity constant K for R4” value was “(3.2 ± 0.7) × 10^7 M^–1”. For the same compound, the “Apparent affinity constant K for LCG” value in data set [1] is reported as “(2.3 ± 0.4) × 10^7 M^–1”. Also, in data set [2], the “Thermal stability of the Z isomer” value is reported as “minimal thermal interconversion at room temperature”.

Turning to `CCCCc1ccc(/N=N\c2ccc(OCCCOc3c4cc(S(=O)(=O)[O-])cc3Cc3cc(S(=O)(=O)[O-])cc(c3O)Cc3cc(S(=O)(=O)[O-])cc(c3O)Cc3cc(S(=O)(=O)[O-])cc(c3O)C4)cc2)cc1.[Li+].[Li+].[Li+].[Li+]` [Z-2], the “Apparent affinity constant K for R4” value with R4 is on record as “(7.8 ± 1.3) × 10^7 M^–1”. Also, in data set [1], the “Apparent affinity constant K for LCG” value is on record as “(3.4 ± 0.8) × 10^7 M^–1”. For the same compound, the “Thermal stability of the Z isomer” value in data set [2] is reported as “minimal thermal interconversion at room temperature”.
